Test results from PMC7125606 (Antiviral Research, 2009).
Where two headings read alike, the source gives them in different places.

Columns and labels:
[1] = tested on: Influenza A/H3N2 (strain X-31); experiment: microbe, parasite or virus in culture; type: cell-based; conditions: H3N2, MDCK, in Homo sapiens, 72 h
[2] = tested on: Influenza A/H3N2 (strain A/HK/7/87); experiment: microbe, parasite or virus in culture; type: cell-based; conditions: H3N2, MDCK, in Homo sapiens, 72 h
[3] = tested on: MDCK cells; conditions: minimal changes in cell morphology by microscopy
[4] = in vitro; conditions: dog
[5] = tested on: influenza virus; type: cell-based, human influenza virus; conditions: Ratio of MCC to average EC50, MDCK cells
[6] = tested on: Human embryonic lung (HEL) fibroblasts
[7] = tested on: human cervix epithelial (HeLa) cells
[8] = tested on: African green monkey kidney (Vero) cells
[9] = read-out: Antiviral EC50, Influenza A/H3N2 (strain X-31), CPE
[10] = read-out: Antiviral EC50, Influenza A/H3N2 (strain X-31), MTS
[11] = read-out: Antiviral EC50, Influenza A/H3N2 (strain A/HK/7/87), CPE
[12] = read-out: Antiviral EC50, Influenza A/H3N2 (strain A/HK/7/87), MTS

| Compound | EC50 [1, 9] [µM] | EC50 [1, 10] [µM] | EC50 [2, 11] [µM] | EC50 [2, 12] [µM] | Cytotoxicity MCC (minimum cytotoxic concentration) [3] [µM] | CC50 [4] [µM] | Selectivity index [5] | Cytotoxic concentration MCC, HEL [6] [µM] | Cytotoxic concentration MCC, HeLa [7] [µM] | Cytotoxic concentration MCC, Vero [8] [µM] |
| --- | --- | --- | --- | --- | --- | --- | --- | --- | --- | --- |
| NC(=O)c1ncn([C@@H]2O[C@H](CO)[C@@H](O)[C@H]2O)n1 [Ribavirin] | 9 ± 0.04 | 9.6 ± 2.2 | 8 ± 2.2 | 7.6 ± 3 | ≥100 | – | – | – | – | – |
| NC12CC3CC(CC(C3)C1)C2 [Amantadine] | 54 ± 33 | 45 ± 21 | 3.9 ± 4.1 | 3.2 ± 4 | >100 | > 100 | – | – | – | – |
| CCC(CC)O[C@@H]1C=C(C(=O)O)C[C@H](N)[C@H]1NC(C)=O [Oseltamivir carboxylate] | 0.027 ± 0.013 | 0.064 ± 0.078 | 0.26 ± 0.3 | 0.23 ± 0.23 | >100 | > 100 | – | – | – | – |
| COC(=O)[C@H]1NC(=O)[C@H]2NC(=O)[C@H](NC(=O)[C@@H]3NC(=O)[C@H]4NC(=O)[C@H](NC(=O)[C@H](N)c5ccc(O)c(c5)Oc5cc4cc(O)c5C)[C@H](O)c4ccc(cc4)Oc4cc3cc(c4O)Oc3ccc(cc3)[C@H]2O)c2ccc(O)c(c2)-c2c(O)cc(O)cc21 [Compound 2, aglycoristocetin] | 8.4 ± 2.4 | 10.7 ± 2.5 | 4.3 ± 2.9 | 3.2 ± 1.6 | 100 | 44 ± 10 | 15 | ≥100 | ≥100 | 100 |
